How the values were obtained:
[1] = Activation of NF-kappaB (unknown origin); parameters: species or system Homo sapiens
[2] = Activation of NF-kappaB (unknown origin) relative to control; details: Homo sapiens
Homo sapiens = species: Homo sapiens; assay: Potency index, ratio of SRI-22818 EC50 to test compound EC50 for activation of NF-kappaB (unknown origin)

SMILES | EC50 ([1]; read-out: EC50) [nM] | Emax [2] [%] | Ratio EC50 (Homo sapiens) | EC50 [1]
COc1cccnc1N/C=C\C(=O)c1ccc2c(c1)OCO2 | 3300 | 12 | – | –
O=C(/C=C\Nc1ncccc1F)c1ccc2c(c1)OCO2 | 100 | 17 | 5 | –
O=C(/C=C\Nc1ncccc1C(F)(F)F)c1ccc2c(c1)OCO2 | 800 | 23 | – | –
Cn1cc(C(=O)c2ccc3c(c2)OCO3)c2cccc(Br)c21 | – | – | – | Not Active
O=C(/C=C\Nc1ccccc1C(F)(F)F)c1ccc2c(c1)OCO2 | 3100 | 8 | – | –
O=C(/C=C\Nc1ccccc1F)c1ccc2c(c1)OCO2 | 320 | 22 | – | –
Cc1cccnc1N/C=C\C(=O)c1ccc2c(c1)OCO2 | 300 | 22 | – | –
O=C(CCNc1ccccc1Br)c1ccc2c(c1)OCO2 | – | – | – | Not Active
Cc1ccc(C(=O)c2c[nH]c3cc(Br)ccc23)cc1C | – | – | – | Not Active
O=C(/C=C\Nc1ccccc1Br)c1ccccn1 | – | – | – | Not Active
O=C(/C=C\Nc1ncccc1F)c1ccccn1 | 900 | 14 | – | –
O=C(c1ccc(Cl)c(Cl)c1)c1c[nH]c2cc(Br)ccc12 | – | – | – | Not Active
O=C(c1ccc2c(c1)OCO2)c1ccn(-c2ccccc2Br)c1 | – | – | – | Not Active
COc1ccccc1N/C=C\C(=O)c1ccccn1 | 200 | 8 | – | –
O=C(c1ccc2c(c1)OCO2)c1ccn(-c2ccc(F)cc2)c1 | 12900 | 13.2 | – | –
O=C(c1ccccn1)c1c[nH]c2c(Br)cccc12 | – | – | – | Not Active
COc1ccc(C(=O)c2c[nH]c3cc(Br)ccc23)cc1OC | – | – | – | Not Active
O=C(c1ccc2c(c1)OCO2)c1ccn(-c2cccc(F)c2)c1 | 17700 | 13.8 | – | –
COc1cccnc1N/C=C\C(=O)c1ccccn1 | 300 | 24 | – | –
O=C(/C=C\Nc1ccccc1Br)c1ccc2c(c1)OCO2 | 500 | 26 | – | –
O=C(c1ccc2c(c1)OCO2)c1c[nH]c2cc(Cl)ccc12 | 1200 | 13.2 | – | –
Cc1ccccc1N/C=C\C(=O)c1ccc2c(c1)OCO2 | 800 | 24 | – | –
O=C(c1ccncc1)c1c[nH]c2c(Br)cccc12 | – | – | – | Not Active
O=C(c1ccc2c(c1)OCO2)c1ccn(-c2ccccc2Cl)c1 | 7800 | 15.1 | – | –
O=C(c1ccc(F)c(F)c1)c1ccn(-c2ccccc2F)c1 | 5840 | 13 | – | –
O=C(/C=C\Nc1ccccc1)c1ccc2c(c1)OCO2 | 400 | 11 | – | –

SMILES | EC50 ([1]; read-out: EC50) [nM] | Emax [2] [%] | Ratio EC50 (Homo sapiens) | EC50 [1]
Cc1ccccc1-n1ccc(C(=O)c2ccc3c(c2)OCO3)c1 | 22400 | 10 | – | –
O=C(Nc1ccc2c(c1)OCO2)c1ccn(-c2ccccc2F)c1 | 11300 | 34 | – | –
O=C(c1ccc2c(c1)OCO2)c1ccn(-c2ccccc2F)c1 | 3210 | 12.5 | – | –
COc1ccccc1N/C=C\C(=O)c1ccc2c(c1)OCO2 | 3900 | 14 | – | –
O=C(/C=C\Nc1ccccc1Cl)c1ccc2c(c1)OCO2 | 500 | 24 | – | –
Cc1cccnc1N/C=C\C(=O)c1ccccn1 | 900 | 22 | – | –
O=C(c1ccc(Cl)c(Cl)c1)c1ccn(-c2ccccc2F)c1 | 7710 | 8.3 | – | –
O=C(c1ccc2c(c1)OCO2)c1c[nH]c2cnccc12 | – | – | – | Not Active
O=C(/C=C\Nc1ncccc1C(F)(F)F)c1ccccn1 | 700 | 16 | – | –
Cc1ccc(C(=O)c2ccn(-c3ccccc3F)c2)cc1C | 11900 | 19.9 | – | –
O=C(c1ccc2c(c1)OCO2)c1c[nH]c2c(Br)cccc12 | 21400 | 18 | – | –
O=C(c1ccc2c(c1)OCO2)c1c[nH]c2cccc(Br)c12 | – | – | – | Not Active
O=C(/C=C\Nc1ccccc1Cl)c1ccccn1 | – | – | – | Not Active
O=C(c1ccc2c(c1)OCO2)c1c[nH]c2ccc(Br)cc12 | 4500 | 3 | – | –
Cc1cccc2c(C(=O)c3ccc4c(c3)OCO4)c[nH]c12 | 43200 | 23 | – | –
O=C(c1ccc2c(c1)OCO2)c1ccccc1Nc1ccccc1Br | – | – | – | Not Active
O=C(c1ccc(F)c(F)c1)c1c[nH]c2cc(Br)ccc12 | – | – | – | Not Active
Cc1ccccc1N/C=C\C(=O)c1ccccn1 | 300 | 17 | – | –
O=C(c1ccc2c(c1)OCO2)c1c[nH]c2c(F)cccc12 | 13400 | 18 | – | –
O=C(/C=C\Nc1ccccc1C(F)(F)F)c1ccccn1 | 1400 | 16 | – | –
O=C(c1ccc2c(c1)OCO2)c1c[nH]c2cc(Br)ccc12 | 1000 | 11.2 | – | –
O=C(/C=C\Nc1ccccc1F)c1ccccn1 | 1000 | 20 | – | –
O=C(c1ccccc1)c1c[nH]c2c(Br)cccc12 | – | – | – | Not Active
Fc1ccccc1-n1ccc(CNc2ccc3c(c2)OCO3)c1 | 15000 | 10.4 | – | –
O=C(c1ccc2c(c1)OCO2)c1c[nH]c2cc(F)ccc12 | 4400 | 8.6 | – | –
